The text below walks through data of ChEMBL document CHEMBL5046301, “pH-Responsive Antimicrobial Peptide with Selective Killing Activity for Bacterial Abscess Therapy” (J Med Chem, 2022).

Calls of active or inactive are those of the source.

Data set [1] can be described thus: Hemolytic activity in human RBC assessed as hemoglobin release at pH 7.4 incubated for 1 hr. As to conditions: erythrocyte, pH 7.4, 1 h. The format is toxicity, cell-based.
Data set [2] in a line: Hemolytic activity against human RBC assessed as hemoglobin release at pH 6.5 incubated for 1 hrs. The format is toxicity, cell-based. As to conditions: erythrocyte, pH 6.5, 1 h.
Data set [3] is described as follows: Ratio of MHC for hemolytic activity against human RBC assessed as hemoglobin release at pH 6.5 to MHC for hemolytic activity against human RBC assessed as hemoglobin release at pH 7.4. As to conditions: human red blood cells (RBC). The format is toxicity, cell-based, Erythrocyte.
Data set [4] in a line: Cytotoxicity against mouse RAW264.7 cells assessed as inhibition of cell growth at pH 7.4 measured after 24 hrs by MTT assay. The class given is toxicity, cell-based.
Data set [5] in a line: Cytotoxicity against mouse RAW264.7 cells assessed as inhibition of cell growth at pH 6.5 measured after 24 hrs by MTT assay. The class given is toxicity, cell-based. On the technique in general: Tetrazolium assays rely on reduction of a dye to a coloured formazan, in cell work by metabolically active cells.
In data set [6] the test system is Pseudomonas aeruginosa. Briefly: Antimicrobial activity against Pseudomonas aeruginosa ATCC 27853 assessed as reduction in bacterial growth at pH 6.5 in presence of NaCl. The format is functional.
Data set [7] relates to Pseudomonas aeruginosa. Briefly: Antimicrobial activity against Pseudomonas aeruginosa ATCC 27853 assessed as reduction in bacterial growth at pH 6.5 in presence of 50% serum. The format is functional, organism-based.
For data set [8], the system named is Pseudomonas aeruginosa. The data set can be described thus: Antimicrobial activity against Pseudomonas aeruginosa ATCC 27853 assessed as reduction in bacterial growth at pH 7.4 in presence of NaCl. The format is functional, organism-based.
Data set [9] relates to Pseudomonas aeruginosa. The data set can be described thus: Antimicrobial activity against Pseudomonas aeruginosa ATCC 27853 assessed as reduction in bacterial growth at pH 7.4 in presence of CaCl2. The class given is functional, organism-based.
Data set [10] relates to Pseudomonas aeruginosa. Briefly: Antimicrobial activity against Pseudomonas aeruginosa ATCC 27853 assessed as reduction in bacterial growth at pH 7.4 in presence of 50% serum. The class given is functional, organism-based.
Data set [11] concerns Mus musculus. Briefly: Antiinflammatory activity in ICR cutaneous abscess mouse model assessed as reduction in TNF-alpha expression in serum at 5 mg/kg,ip administered twice a day measured after 72 hrs by ELISA (reference value: 1.01 +/ 0.46 10^3 pg/ml). The format is functional.
The test system of data set [12] is Mus musculus. Briefly: Antiinflammatory activity in ICR cutaneous abscess mouse model assessed as reduction in IL-1alpha expression in serum at 5 mg/kg,ip administered twice a day measured after 72 hrs by ELISA (reference value: 9.9 +/ 0.42 10^1pg/ml). The class given is functional.
In data set [13] the test system is Mus musculus. The data set can be described thus: Antiinflammatory activity in ICR cutaneous abscess mouse model assessed as reduction in IL-1beta expression in serum at 5 mg/kg,ip administered twice a day measured after 72 hrs by ELISA (reference value: 9.9 +/ 0.47 10^1pg/ml). The format is functional. On the technique in general: ELISA stands for enzyme-linked immunosorbent assay.

The subject of data set [14] is Mus musculus. Briefly: Antiinflammatory activity in ICR cutaneous abscess mouse model assessed as reduction in IL-2 expression in serum at 5 mg/kg,ip administered twice a day measured after 72 hrs by ELISA (reference value: 1.53 +/ 0.06 10^3pg/ml). The class given is functional.
Data set [15] deals with Pseudomonas aeruginosa. The data set can be described thus: Antimicrobial activity against Pseudomonas aeruginosa ATCC 27853 infected in ICR cutaneous abscess mouse model assessed as reduction in necrotic tissue area in infection site at 5 mg/kg,ip administered twice a day measured after 3 days by hematoxylin and eosin staining based analysis. Conditions: time 3.0 day. The format is functional, organism-based.

Data set [16] concerns Pseudomonas aeruginosa. Briefly: Antimicrobial activity against Pseudomonas aeruginosa ATCC 27853 infected in ICR cutaneous abscess mouse model assessed as complete epidermis structure at 5 mg/kg,ip administered twice a day measured after 3 days by hematoxylin and eosin staining based analysis. The format is functional, organism-based. Conditions: time 3.0 day.
In data set [17] the test system is Staphylococcus epidermidis. The data set can be described thus: Antibacterial activity against Staphylococcus epidermidis ATCC 12228 assessed as inhibition of bacterial growth at pH 6.5 incubated for 24 hrs by NCCLS protocol based method. The format is functional.
For data set [18], the system named is Staphylococcus aureus. The data set can be described thus: Antibacterial activity against methicillin-resistant Staphylococcus aureus ATCC 43300 assessed as inhibition of bacterial growth at pH 7.4 incubated for 24 hrs by NCCLS protocol based method. The format is functional.
Data set [19] deals with Salmonella typhimurium. Briefly: Antibacterial activity against Salmonella enterica subsp. enterica serovar Typhimurium C77-31 assessed as inhibition of bacterial growth at pH 7.4 incubated for 24 hrs by NCCLS protocol based method. The class given is functional.
Data set [20] deals with Salmonella typhimurium. The data set can be described thus: Antibacterial activity against Salmonella typhimurium ATCC 14028 assessed as inhibition of bacterial growth at pH 7.4 incubated for 24 hrs by NCCLS protocol based method. The format is functional, Salmonella enterica subsp. enterica serovar Typhimurium. Conditions: Salmonella enterica.
Data set [21] concerns Escherichia coli. The data set can be described thus: Antibacterial activity against Escherichia coli ATCC 25922 assessed as inhibition of bacterial growth at pH 7.4 incubated for 24 hrs by NCCLS protocol based method. The class given is functional.
The subject of data set [22] is Pseudomonas aeruginosa. Briefly: Antibacterial activity against Pseudomonas aeruginosa ATCC 27853 assessed as inhibition of bacterial growth at pH 7.4 incubated for 24 hrs by NCCLS protocol based method. The format is functional.
For data set [23], the system named is Staphylococcus aureus. Briefly: Antibacterial activity against Staphylococcus aureus ATCC 29213 assessed as inhibition of bacterial growth at pH 7.4 incubated for 24 hrs by NCCLS protocol based method. The class given is functional.
Data set [24] relates to Staphylococcus epidermidis. The data set can be described thus: Antibacterial activity against Staphylococcus epidermidis ATCC 12228 assessed as inhibition of bacterial growth at pH 7.4 incubated for 24 hrs by NCCLS protocol based method. The format is functional.
Data set [25] has as its system Staphylococcus aureus. The data set can be described thus: Antibacterial activity against Staphylococcus aureus ATCC 25923 assessed as inhibition of bacterial growth at pH 7.4 incubated for 24 hrs by NCCLS protocol based method. The format is functional.
Data set [26] deals with Salmonella typhimurium. Briefly: Antibacterial activity against Salmonella enterica subsp. enterica serovar Typhimurium C77-31 assessed as inhibition of bacterial growth at pH 6.5 incubated for 24 hrs by NCCLS protocol based method. The format is functional.
Data set [27] relates to Salmonella typhimurium. Briefly: Antibacterial activity against Salmonella typhimurium ATCC 14028 assessed as inhibition of bacterial growth at pH 6.5 incubated for 24 hrs by NCCLS protocol based method. The class given is functional, Salmonella enterica subsp. enterica serovar Typhimurium. As to conditions: Salmonella enterica.
For data set [28], the system named is Escherichia coli. The data set can be described thus: Antibacterial activity against Escherichia coli ATCC 25922 assessed as inhibition of bacterial growth at pH 6.5 incubated for 24 hrs by NCCLS protocol based method. The format is functional.
Data set [29] has as its system Pseudomonas aeruginosa. Briefly: Antibacterial activity against Pseudomonas aeruginosa ATCC 27853 assessed as inhibition of bacterial growth at pH 6.5 incubated for 24 hrs by NCCLS protocol based method. The class given is functional.
Data set [30] has as its system Staphylococcus aureus. The data set can be described thus: Antibacterial activity against Staphylococcus aureus ATCC 29213 assessed as inhibition of bacterial growth at pH 6.5 incubated for 24 hrs by NCCLS protocol based method. The format is functional.
Data set [31] relates to Staphylococcus aureus. The data set can be described thus: Antibacterial activity against Staphylococcus aureus ATCC 25923 assessed as inhibition of bacterial growth at pH 6.5 incubated for 24 hrs by NCCLS protocol based method. The format is functional.
In data set [32] the test system is Staphylococcus aureus. The data set can be described thus: Antibacterial activity against methicillin-resistant Staphylococcus aureus ATCC 43300 assessed as inhibition of bacterial growth at pH 6.5 incubated for 24 hrs by NCCLS protocol based method. The format is functional.
Data set [33] relates to Cell membrane. Briefly: Induction of outer membrane permeabilization in Pseudomonas aeruginosa ATCC 27853 assessed as pH responsive ability by measuring fold increase in NPN uptake at 64 uM by NPN-dye based fluorescence analysis relative to control. The class given is subcellular.
Data set [34] deals with Cell membrane. The data set can be described thus: Induction of cytoplasmic membrane depolarization in Pseudomonas aeruginosa ATCC 27853 assessed as increase in fluorescence intensity at acidic and alkaline pH by DiSC3-5 dye based fluorescence assay. The class given is subcellular. As to conditions: TDE = time-dependent effect.
Data set [35] relates to Lipopolysaccharide (LPS). The data set can be described thus: Displacement of BODIPY-TR-cadaverin from Pseudomonas aeruginosa ATCC 27316 Lipopolysaccharide at 1 to 64 uM at pH 6.5 incubated for 1 hr by fluorescence based analysis. Conditions: dose 1-64 µM.
In data set [36] the test system is Lipopolysaccharide (LPS). The data set can be described thus: Displacement of BODIPY-TR-cadaverin from Pseudomonas aeruginosa ATCC 27316 Lipopolysaccharide at 1 to 64 uM at pH 7.4 incubated for 1 hr by fluorescence based analysis. Conditions: dose 1-64 µM.
Data set [37] concerns Cell membrane. The data set can be described thus: Induction of outer membrane permeabilization in Pseudomonas aeruginosa ATCC 27853 assessed as increase in NPN uptake by NPN-dye based fluorescence analysis. The class given is subcellular. As to conditions: dose 1-64 µM.

As usually defined, the IC50 is the concentration that inhibits the measured activity by half. As for `CC[C@H](C)[C@H](NC(=O)CN)C(=O)NCC(=O)N[C@@H](C)C(=O)N[C@H](C(=O)N[C@@H](CC(C)C)C(=O)N[C@@H](CCCCN)C(=O)N[C@H](C(=O)N[C@@H](CC(C)C)C(=O)N[C@H](C(=O)N[C@H](C(=O)NCC(=O)N[C@@H](CC(C)C)C(=O)N1CCC[C@H]1C(=O)N[C@@H](C)C(=O)N[C@@H](CC(C)C)C(=O)N[C@H](C(=O)N[C@@H](CO)C(=O)N[C@@H](Cc1c[nH]c2ccccc12)C(=O)N[C@H](C(=O)N[C@@H](CCCCN)C(=O)N[C@@H](CCCNC(=N)N)C(=O)N[C@@H](CCCCN)C(=O)N[C@@H](CCCNC(=N)N)C(=O)N[C@@H](CCC(N)=O)C(=O)N[C@@H](CCC(N)=O)C(N)=O)[C@@H](C)CC)[C@@H](C)CC)[C@@H](C)O)[C@@H](C)O)C(C)C)C(C)C` [MELITTIN], the MHC10 is 4 µM in [1] and 2 µM in data set [2]. Besides, in data set [3], the selectivity ratio turned out to be 0.5. The IC50 at 24 h in data set [4] was found to be 1940 nM; in data set [5], 1300 nM. The result in data set [6], in [7], in [8], in data set [9] and in [10] was inactive.

In the case of COLISTIN, the Activity is 8.06 10^2pg/ml in data set [11], 7.95 10^1pg/ml in data set [12], 7.23 10^1pg/ml in data set [13] and 1.11 10^3pg/ml in data set [14]. Moreover, the outcome in data set [15] and in data set [16] was Active.

One may read the MIC as the smallest concentration in the dilution series that meets the test's criterion for growth inhibition. Take H-FLFKLIPKVIKGLVKAIRK-NH2: the MIC in [17] came to 2 µM; in data set [18], 2 µM; in data set [19] it was 4 µM; in [20], 2 µM; in data set [21], 2 µM; in [22], 4 µM. Further, the MIC stood at 2 µM in [23]; 2 µM in [24]; 2 µM in data set [25]; 2 µM in data set [26]; 2 µM in data set [27]; 1 µM in [28]. In addition, the MIC in data set [29] came out at 1 µM; in [30], 2 µM; in data set [31], 2 µM; in data set [32] it was 2 µM. Besides, the MHC10 in [1] came out at 16 µM; in data set [2], 2 µM. Moreover, in data set [3], the selectivity ratio was found to be 0.13. Also, the figures for the IC50 at 24 h in data set [4] and in data set [5] were 2450 nM and 1910 nM, respectively. Further, the result in data set [33] was inactive. For the same compound, the results for the Activity result in data set [34] and in data set [37] were “Tde” and “Dose-Dependent Effect”, respectively. The result in data set [35] and in data set [36] was Active.

Regarding H-FLHHLIPHVIHGLVHAIHH-NH2, the MIC was 8 µM in data set [17]; 4 µM in data set [18]; 16 µM in data set [19]; 16 µM in data set [20]; 8 µM in data set [21]; more than 64 µM in data set [22]. In addition, the MIC in data set [23] is more than 64 µM; in data set [24], 4 µM; in data set [25], 4 µM; in data set [26], 2 µM; in data set [27] it was 4 µM; in data set [28], 2 µM. Besides, the MIC in data set [29] stood at 2 µM; in data set [30], 16 µM; in data set [31], 8 µM; in [32], 8 µM. Further, the MHC10 in data set [1] and in [2] was 64 µM each time. Besides, in [3], the selectivity ratio is 1. The figures for the concentration for half-maximal inhibition (IC50) at 24 h in [4] and in data set [5] were 70100 nM and 16100 nM, respectively.
